Test results from patent US8993547B2, “3-desoxy-2-methylene-19-nor-vitamin D analogs and their uses” (Wisconsin Alumni Research Foundation, priority 2011, dated 2015).
Entries after “also recorded” stand apart in the source; their conditions may differ.

Columns and labels:
[1] = biological target: T1, full-length recombinant rat vitamin D receptor (Rattus norvegicus, UniProt P13053); assay: Vitamin D receptor competitive binding with [3H]-1,25(OH)2D3; conditions: full-length recombinant rat VDR
T1 construct: Full-length recombinant rat receptor was expressed in E. coli; histidine tag (C); made in house; host or cells: E. coli BL21 (DE3) Codon Plus RIL
T1 sequence (P13053 1-423): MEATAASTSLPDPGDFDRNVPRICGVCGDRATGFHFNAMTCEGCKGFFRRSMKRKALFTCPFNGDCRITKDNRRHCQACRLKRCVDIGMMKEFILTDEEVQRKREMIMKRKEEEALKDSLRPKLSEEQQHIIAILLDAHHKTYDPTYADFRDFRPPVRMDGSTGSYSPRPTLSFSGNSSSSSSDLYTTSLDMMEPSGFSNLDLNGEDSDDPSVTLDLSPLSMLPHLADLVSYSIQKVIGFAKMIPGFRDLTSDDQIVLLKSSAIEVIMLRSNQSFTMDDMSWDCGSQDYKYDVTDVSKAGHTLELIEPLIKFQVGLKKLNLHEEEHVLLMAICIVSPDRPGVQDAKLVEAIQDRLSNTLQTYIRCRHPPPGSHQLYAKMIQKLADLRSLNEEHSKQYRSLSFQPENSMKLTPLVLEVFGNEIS
Description: Full-length recombinant rat receptor was expressed in E. coli BL21 (DE3) Codon Plus RIL cells and purified to homogeneity using two different column chromatography systems. The first system was a nickel affinity resin that utilizes the C-terminal histidine tag on this protein. The protein that was eluted from this resin was further purified using ion exchange chromatography (S-Sepharose Fast Flow). Aliquots of the purified protein were quick frozen in liquid nitrogen and stored at −80° C. until use. For use in binding assays, the protein was diluted in TEDK50 (50 mM Tris, 1.5 mM EDTA, pH7.4, 5 mM DTT, 150 mM KCl) with 0.1% Chaps detergent. The receptor protein and ligand concentration was optimized such that no more than 20% of the added radiolabeled ligand was bound to the receptor.
Radiolabeled and unlabeled ligands were added to 100 mcl of the diluted protein at a final ethanol concentration of ≦10%, mixed and incubated overnight on ice to reach binding equilibrium. The following day, 100 mcl of hydroxylapatite slurry (50%) was added to each tube and mixed at 10-minute intervals for 30 minutes. The hydroxylapaptite was collected by centrifugation and then washed three times with Tris-EDTA buffer (50 mM Tris, 1.5 mM EDTA, pH 7.4) containing 0.5% Titron X-100. After the final wash, the pellets were transferred to scintillation vials containing 4 ml of Biosafe II scintillation cocktail, mixed and placed in a scintillation counter. Total binding was determined from the tubes containing only radiolabeled ligand.

[2] = system: Human promyelocytic leukemia (HL60) cells; assay: HL-60 cell differentiation (nitro blue tetrazolium reduction); type: cell-based; conditions: for EC50: HL60 cells, 4 days
Description: The study drugs were dissolved in ethanol and the concentrations determined using UV spectrophotometry. Serial dilutions were prepared so that a range of drug concentrations could be tested without changing the final concentration of ethanol (≦0.2%) present in the cell cultures.
Human promyelocytic leukemia (HL60) cells were grown in RPMI-1640 medium containing 10% fetal bovine serum. The cells were incubated at 37° C. in the presence of 5% CO2.
HL60 cells were plated at 1.2×10^5 cells/ml. Eighteen hours after plating, cells in duplicate were treated with drug. Four days later, the cells were harvested and a nitro blue tetrazolium reduction assay was performed (Collins et al., 1979; J. Exp. Med. 149:969-974). The percentage of differentiated cells was determined by counting a total of 200 cells and recording the number that contained intracellular black-blue formazan deposits. Verification of differentiation to monocytic cells was determined by measuring phagocytic activity (data not shown).

[3] = system: 24-hydroxylase (24Ohase) gene promoter in ROS 17/2.8 (bone) cells; assay: In vitro transcription assay, 24-hydroxylase gene promoter luciferase reporter; type: cell-based; conditions: for transcriptional activity in bone cells compared to 1α,25-dihydroxyvitamin D3: 24-hydroxylase gene; for EC50: ROS 17/2.8 cells, 16 hours after dosing, read-out: EC50, transcriptional activity in bone cells (24-hydroxylase gene)
Description: Transcription activity was measured in ROS 17/2.8 (bone) cells that were stably transfected with a 24-hydroxylase (24Ohase) gene promoter upstream of a luciferase reporter gene (Arbour et al., 1998). Cells were given a range of doses. Sixteen hours after dosing the cells were harvested and luciferase activities were measured using a luminometer. RLU=relative luciferase units.

[4] = system: bone calcium mobilization; assay: Bone calcium mobilization (serum calcium) in vitamin D-deficient rats; type: in vivo, Sprague-Dawley rats; conditions: for bone calcium mobilization activity / serum calcium: vitamin D-deficient rats on low calcium diet (0.02%)
Description: (§1) Male, weanling Sprague-Dawley rats were placed on Diet 11 (Suda et al, J. Nutr. 100:1049, 1970) (0.47% Ca)+vitamins AEK for one week followed by Diet 11 (0.02% Ca)+vitamins AEK for 3 weeks. The rats were then switched to the same diet containing 0.47% Ca for one week followed by two weeks on the same diet containing 0.02% Ca. Dose administration began during the last week on 0.02% calcium diet. Four consecutive ip doses were given approximately 24 hours apart. Twenty-four hours after the last dose, blood was collected from the severed neck and the concentration of serum calcium determined by atomic absorption spectrometry as a measure of bone calcium mobilization. The first 10 cm of the intestine was also collected for intestinal calcium transport analysis using the everted gut sac method.

[5] = system: intestinal calcium transport; assay: Intestinal calcium transport, everted gut sac method; type: in vivo, Sprague-Dawley rats; conditions: vitamin D-deficient rats
Description: as §1

SMILES | binding affinity to vitamin D receptor compared to 1,25-(OH)2D3 [1] | EC50 ([2]; Homo sapiens, HL-60, 96 h) | transcriptional activity in bone cells compared to 1α,25-dihydroxyvitamin D3 [3] | EC50 [3] | potency in mobilization of bone calcium relative to native hormone at the same dose ([4]; 780 pmol/day for 4 consecutive days, rats on low calcium diet (0.02%)) | potency in releasing bone calcium stores relative to native hormone ([4]; vitamin D-deficient rats, times more potent than 1,25(OH)2D3) | intestinal calcium transport activity compared to 1,25(OH)2D3 [5] | EC50 [2] | bone calcium mobilization activity / serum calcium [4] | Ki ([1]; read-out: Ki, competition with [3H]-1,25(OH)2D3 for binding to vitamin D receptor) | potency on HL-60 cell differentiation compared to 1,25(OH)2D3 [2] | mobilization of bone calcium compared to native hormone at the same dose ([4]; 87 pmol/day for 4 consecutive days)
C=C1CC/C(=C/C=C2\CCC[C@]3(C)[C@@H]([C@@H](C)CCCC(C)(C)O)CC[C@@H]23)C[C@H]1O [3-desoxy-2MD, (20S)-3-desoxy-2-methylene-1α,25-dihydroxy-19-nor-vitamin D3] | about the same affinity | 0.7 nM | about the same transcriptional activity | 0.3 nM | about 10 times | at least 10 times | about one half log less potent; also recorded: at least one half log less potent than 1,25(OH)2D3 | – | – | – | – | –
C=C1/C(=C\C=C2/CCC[C@]3(C)[C@@H]([C@H](C)CCCC(C)(C)O)CC[C@@H]23)C[C@@H](O)C[C@@H]1O [1α,25-dihydroxyvitamin D3, reference compound] | – | – | – | – | – | – | – | 2 nM | increased serum calcium levels at the dosages tested | – | – | –
C=C1CC/C(=C/C=C2\CCC[C@]3(C)[C@@H]([C@H](C)CCCC(C)(C)O)CC[C@@H]23)C[C@H]1O [3D-MJ, (20R)-3-desoxy-2-methylene-1α,25-dihydroxy-19-nor-vitamin D3] | about the same affinity | 1 nM | about the same transcriptional activity | 0.3 nM | – | – | about the same potency as 1,25(OH)2D3; also recorded: about as potent | – | about the same potency as the native hormone | 0.7 nM | about the same potency as 1,25(OH)2D3 | only slightly less mobilization of bone calcium than the native hormone
